What was measured:
Type in all cases: physicochemical
[1] = Photothermal conversion under continuous 808 nm laser irradiation, 1.5 W/cm^2; conditions: 808 nm NIR laser
Description: DdH2O, blank nanoparticles, 0.012 mg/mL free ICG, nanoparticles containing ICG and Fe3O4 (concentration of ICG is 0.012 mg/mL) and nanoparticles containing ICG and oleic acid modified Fe3O4 were continuously irradiated at 1.5 W/cm2 by 808 nm laser emitter. […] Then, PLGA nanoparticles coated with oleic acid modified Fe3O4 and free oleic acid modified Fe3O4 were irradiated continuously. […] But the heat production capacity is low. Then, we used intermittent irradiation method, every 3 minutes to raise the temperature to the highest point, and stopped the irradiation for 7 minutes to bring the temperature back to room temperature until the temperature no longer increased.
To evaluate its photothermal conversion performance, ICG/OA-Fe3O4@PLGA solutions were irradiated with an 808 nm NIR laser (1.5 W/cm^2, FIGS. 3A-3C). […] No significant temperature changes were found in Blank-NP solution and DI water. Only negligible temperature increase of Blank-NP solution and DI water were found.

[2] = Photothermal heating under 808 nm NIR laser, 1.0 W/cm^2 for 10 min; conditions: 1.0 W/cm^2, 10 min, 1 mL aqueous, 12 μg/mL ICG or 11.6 μg/mL Fe
Description: To synthesize an effectiveness photothermal agents, we explore the synergistic effect of ICG and OA-Fe3O4. Various photothermal agents were exposed to 808 nm NIR laser irradiation with a power density of 1.0 W/cm^2 for 10 min. Aqueous suspensions of ICG/OA-Fe3O4@NPs, mixture of free ICG and OA-Fe3O4 (1 mL solution with 12 μg/mL ICG or 11.6 μg/mL Fe) reach the maximum temperatures of 45.9° C., 46.6° C.

[3] = Photothermal stability, laser ON 3 min / OFF 7 min cycles; conditions: NIR laser 3 min ON, 7 min OFF
Description: DdH2O, blank nanoparticles, 0.012 mg/mL free ICG, nanoparticles containing ICG and Fe3O4 (concentration of ICG is 0.012 mg/mL) and nanoparticles containing ICG and oleic acid modified Fe3O4 were continuously irradiated at 1.5 W/cm2 by 808 nm laser emitter. […] Then, PLGA nanoparticles coated with oleic acid modified Fe3O4 and free oleic acid modified Fe3O4 were irradiated continuously.
ICG@NPs, free ICG, ICG/OA-Fe3O4@NPs, free ICG/OA-Fe3O4 were irradiated with the NIR laser for 3 min (Laser ON), followed by natural cooling for 7 min (Laser OFF).
Furthermore, to investigate the photothermal conversion stability of ICG/OA-Fe3O4@PLGA for practical applications, solutions of ICG/OA-Fe3O4@PLGA, ICG/Fe3O4@PLGA, ICG@PLGA, Blank-NPs and free ICG were irradiated with the NIR laser for 3 min (Laser ON), followed by natural cooling for 7 min (Laser OFF).

## CC1(C)C(/C=C/C=C/C=C/C=C2\N(CCCCS(=O)(=O)O)c3ccc4ccccc4c3C2(C)C)=[N+](CCCCS(=O)(=O)[O-])c2ccc3ccccc3c21 [free ICG, Indocyanine green]
[1]
  time high temperature was maintained: only a few minutes
[1]; 500 μg mL-1
  temperature reached by the solution: 47.3 °C
[2]
  maximum temperature: 41.8 °C
[3]; 1st of six cycles
  maxim temperature, laser ON/OFF cycle 1: 40.9 °C
[3]; 2nd of six cycles
  maxim temperature, laser ON/OFF cycle 2: 37.1 °C
[3]; 3rd of six cycles
  maxim temperature, laser ON/OFF cycle 3: 33.8 °C
[3]; 4th of six cycles
  maxim temperature, laser ON/OFF cycle 4: 32.8 °C
[3]; 5th of six cycles
  maxim temperature, laser ON/OFF cycle 5: 30.7 °C
[3]; 6th of six cycles
  maxim temperature, laser ON/OFF cycle 6: 30.1 °C
